According to patent US20110214196A1, “DEVELOPMENT OF HERBICIDE-RESISTANT GRASS SPECIES” (University of Georgia Research Foundation, priority 2008, published 2011):

System: callus tissue generated from the variety 'Seaspray'
Assay: Callus growth dose response to sethoxydim
Format: cell-based, seashore paspalum (Paspalum vaginatum)
Conditions: growth averaged over three consecutive 3-week subcultures
Protocol: The dose response of paspalum tissue in culture to sethoxydim rate was determined using callus tissue generated from the variety ‘Seaspray’ as a model cultivar. Effect of sethoxydim concentration on callus growth was determined by placing callus tissue from ‘Seaspray’ on MS/B5 medium (Murashige and Skoog. 1962. supra; Gamborg et al. 1968. supra) containing 2 mg/L 2-4,D and one of eight concentrations of sethoxydim. Herbicide rates were replicated 6 times and included concentrations of 0, 2.5, 5, 7.5, 10, 25, 50, and 100 μM sethoxydim. Sethoxydim was diluted in methanol and added after the autoclaved medium was cooled to approximately 55° C. (in order to prevent loss of activity from heat degradation). The medium was protected from photo-degradation by wrapping containers in aluminum foil prior to storage.
To measure callus growth, 0.5 gram of callus tissue was weighed, separated into nine equal pieces and placed in a 3×3 pattern on the solid medium of each plate. Six replicate plates for each of the eight sethoxydim concentrations was distributed on a rack in a growth room in a completely randomized design. At 21 days after plating, the tissue from each plate was weighed and recorded. For subculture, 0.5 gram from each plate was obtained for the next growth period. This process was continued for nine weeks, providing three growth measurements for each plate. […]

CCC/C(=N\OCC)C1=C(O)CC(CC(C)SCC)CC1=O (stereo not shown) [sethoxydim, 2-[1-(ethoxyimino)-butyl]-5-[2-(ethylthio)propyl]-3-hydroxy-2-cylohexen-1-one]
lowest herbicide rate to totally inhibit callus growth: 7.5 µM
